Experimental data taken from ChEMBL document CHEMBL1154822, “Synthesis and antiproliferative activity of 7-azaindirubin-3'-oxime, a 7-aza isostere of the natural indirubin pharmacophore” (J Nat Prod, 2009).

How the values were obtained:
786-0 = test: Cytotoxicity against human 786-0 cells assessed as cell growth at 10 uM after 48 hrs by MTT assay; type: functional; conditions: 786-0, 48 h, read-out: Activity
A498 = test: Cytotoxicity against human A498 cells assessed as cell growth at 10 uM after 48 hrs by MTT assay; type: functional; conditions: A498, 48 h, read-out: Activity
ACHN = test: Cytotoxicity against human ACHN cells assessed as cell growth at 10 uM after 48 hrs by MTT assay; type: functional; conditions: read-out: Activity
CAKI-1 = test: Cytotoxicity against human Caki1 cells assessed as cell growth at 10 uM after 48 hrs by MTT assay; type: functional; conditions: CAKI-1, 48 h, read-out: Activity
RXF 393 = test: Cytotoxicity against human […] cells assessed as cell growth at 10 uM after 48 hrs by MTT assay; type: functional; conditions: RXF 393, 48 h, read-out: Activity
UO-31 = test: Cytotoxicity against human UO31 cells assessed as cell growth at 10 uM after 48 hrs by MTT assay; type: functional; conditions: UO-31, 48 h, read-out: Activity
A549 = test: Cytotoxicity against human A549 cells assessed as cell growth at 10 uM after 48 hrs by MTT assay; type: functional; conditions: A549, 48 h, read-out: Activity
EKVX = test: Cytotoxicity against human EKVX cells assessed as cell growth at 10 uM after 48 hrs by MTT assay; type: functional; conditions: read-out: Activity
HOP-62 = test: Cytotoxicity against human HOP62 cells assessed as cell growth at 10 uM after 48 hrs by MTT assay; type: functional; conditions: HOP-62, 48 h, read-out: Activity
HOP-92 = test: Cytotoxicity against human HOP92 cells assessed as cell growth at 10 uM after 48 hrs by MTT assay; type: functional; conditions: HOP-92, 48 h, read-out: Activity
NCI-H23 = test: Cytotoxicity against human NCI-H23 cells assessed as cell growth at 10 uM after 48 hrs by MTT assay; type: functional; conditions: NCI-H23, 48 h, read-out: Activity
NCI-H322M = test: Cytotoxicity against human NCI-H322M cells assessed as cell growth at 10 uM after 48 hrs by MTT assay; type: functional; conditions: read-out: Activity
NCI-H460 = test: Cytotoxicity against human NCI-H460 cells assessed as cell growth at 10 uM after 48 hrs by MTT assay; type: functional; conditions: NCI-H460, 48 h, read-out: Activity
NCI-H522 = test: Cytotoxicity against human NCI-H522 cells assessed as cell growth at 10 uM after 48 hrs by MTT assay; type: functional; conditions: NCI-H522, 48 h, read-out: Activity
COLO 205 = test: Cytotoxicity against human COLO205 cells assessed as cell growth at 10 uM after 48 hrs by MTT assay; type: functional; conditions: COLO 205, 48 h, read-out: Activity
HCT-15 = test: Cytotoxicity against human HCT15 cells assessed as cell growth at 10 uM after 48 hrs by MTT assay; type: functional; conditions: HCT-15, 48 h, read-out: Activity
HT-29 = test: Cytotoxicity against human HT-29 cells assessed as cell growth at 10 uM after 48 hrs by MTT assay; type: functional; conditions: HT-29, 48 h, read-out: Activity
KM12 = test: Cytotoxicity against human KM12 cells assessed as cell growth at 10 uM after 48 hrs by MTT assay; type: functional; conditions: KM12, 48 h, read-out: Activity
SW-620 = test: Cytotoxicity against human SW620 cells assessed as cell growth at 10 uM after 48 hrs by MTT assay; type: functional; conditions: SW-620, 48 h, read-out: Activity
BT-549 = test: Cytotoxicity against human BT549 cells assessed as cell growth at 10 uM after 48 hrs by MTT assay; type: functional; conditions: BT-549, 48 h, read-out: Activity
MDA-MB-468 = test: Cytotoxicity against human MDA-MB-468 cells assessed as cell growth at 10 uM after 48 hrs by MTT assay; type: functional; conditions: MDA-MB-468, 48 h, read-out: Activity
T47D = test: Cytotoxicity against human T47D cells assessed as cell growth at 10 uM after 48 hrs by MTT assay; type: functional; conditions: read-out: Activity
SK-OV-3 = test: Cytotoxicity against human SKOV3 cells assessed as cell growth at 10 uM after 48 hrs by MTT assay; type: functional; conditions: SK-OV-3, 48 h, read-out: Activity
HL-60(TB) = test: Cytotoxicity against human HL-60(TB) cells assessed as cell growth at 10 uM after 48 hrs by MTT assay; type: functional; conditions: HL-60, 48 h, read-out: Activity
MOLT-4 = test: Cytotoxicity against human MOLT4 cells assessed as cell growth at 10 uM after 48 hrs by MTT assay; type: functional; conditions: MOLT-4, 48 h, read-out: Activity
RPMI-8226 = test: Cytotoxicity against human RPMI8226 cells assessed as cell growth at 10 uM after 48 hrs by MTT assay; type: functional; conditions: RPMI-8226, 48 h, read-out: Activity
Malme-3M = test: Cytotoxicity against human MALME-3M cells assessed as cell growth at 10 uM after 48 hrs by MTT assay; type: functional; conditions: read-out: Activity
DU-145 = test: Cytotoxicity against human DU145 cells assessed as cell growth at 10 uM after 48 hrs by MTT assay; type: functional; conditions: DU-145, 48 h, read-out: Activity
PC-3 = test: Cytotoxicity against human PC3 cells assessed as cell growth at 10 uM after 48 hrs by MTT assay; type: functional; conditions: PC-3, 48 h, read-out: Activity
SF-268 = test: Cytotoxicity against human SF268 cells assessed as cell growth at 10 uM after 48 hrs by MTT assay; type: functional; conditions: SF-268, 48 h, read-out: Activity
SF-295 = test: Cytotoxicity against human SF295 cells assessed as cell growth at 10 uM after 48 hrs by MTT assay; type: functional; conditions: SF-295, 48 h, read-out: Activity
SNB-19 = test: Cytotoxicity against human SNB19 cells assessed as cell growth at 10 uM after 48 hrs by MTT assay; type: functional; conditions: SNB-19, 48 h, read-out: Activity
SNB-75 = test: Cytotoxicity against human SNB75 cells assessed as cell growth at 10 uM after 48 hrs by MTT assay; type: functional; conditions: SNB-75, 48 h, read-out: Activity
U-251 = test: Cytotoxicity against human U251 cells assessed as cell growth at 10 uM after 48 hrs by MTT assay; type: functional; conditions: U-251, 48 h, read-out: Activity
[1] = molecular target: Cyclin-dependent kinase 1/cyclin B1 (Homo sapiens) (UniProt P06493+P14635); test: Inhibition of human CDK1/Cyclin B assessed as residual enzyme activity at 0.3 uM after 40 mins by scintillation counting; type: protein-complex assay
Cyclin-dependent kinase 1/cyclin B1 (Homo sapiens), sequence (P06493 whole entry, looked up): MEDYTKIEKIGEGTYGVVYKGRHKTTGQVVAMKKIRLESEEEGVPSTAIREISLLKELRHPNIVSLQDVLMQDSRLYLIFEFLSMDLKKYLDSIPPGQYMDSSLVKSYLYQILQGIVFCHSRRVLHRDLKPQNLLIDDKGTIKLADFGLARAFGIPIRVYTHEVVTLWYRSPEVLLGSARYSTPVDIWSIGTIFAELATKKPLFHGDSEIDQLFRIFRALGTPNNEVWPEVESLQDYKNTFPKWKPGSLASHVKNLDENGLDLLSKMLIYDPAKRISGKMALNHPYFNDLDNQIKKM
Cyclin-dependent kinase 1/cyclin B1 (Homo sapiens), sequence (P14635 whole entry, looked up): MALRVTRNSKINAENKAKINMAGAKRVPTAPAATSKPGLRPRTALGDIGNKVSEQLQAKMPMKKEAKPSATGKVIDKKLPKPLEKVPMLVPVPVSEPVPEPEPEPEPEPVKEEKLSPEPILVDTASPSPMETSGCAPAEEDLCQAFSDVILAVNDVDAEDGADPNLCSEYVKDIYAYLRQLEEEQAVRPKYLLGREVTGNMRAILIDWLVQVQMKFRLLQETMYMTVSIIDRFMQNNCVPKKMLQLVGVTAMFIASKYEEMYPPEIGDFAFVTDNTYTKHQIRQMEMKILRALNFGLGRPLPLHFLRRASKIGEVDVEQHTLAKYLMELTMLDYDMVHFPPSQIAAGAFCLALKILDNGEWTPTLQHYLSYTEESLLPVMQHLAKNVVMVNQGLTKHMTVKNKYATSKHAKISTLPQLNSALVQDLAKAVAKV

[2] = molecular target: Cyclin-dependent kinase 2/cyclin A (Homo sapiens) (UniProt P24941+P20248+P78396); test: Inhibition of human CDK2/Cyclin A assessed as residual enzyme activity at 3 uM after 40 mins by scintillation counting; type: protein-complex assay
[3] = molecular target: Cyclin-dependent kinase 5/CDK5 activator 1 (Homo sapiens) (UniProt Q00535+Q15078); test: Inhibition of human CDK5/p35 assessed as residual enzyme activity at 0.3 uM after 40 mins by scintillation counting; type: protein-complex assay

Row | Structure (SMILES) | growth at 10 µM (786-0) | growth at 10 µM (A498) | growth at 10 µM (ACHN) | growth at 10 µM (CAKI-1) | growth at 10 µM (RXF 393) | growth at 10 µM (UO-31) | growth at 10 µM (A549) | growth at 10 µM (EKVX) | growth at 10 µM (HOP-62) | growth at 10 µM (HOP-92) | growth at 10 µM (NCI-H23) | growth at 10 µM (NCI-H322M) | growth at 10 µM (NCI-H460) | growth at 10 µM (NCI-H522) | growth at 10 µM (COLO 205) | growth at 10 µM (HCT-15) | growth at 10 µM (HT-29) | growth at 10 µM (KM12) | growth at 10 µM (SW-620) | growth at 10 µM (BT-549) | also measured
1 | CN1C(=O)/C(=C2/C(=O)N(C)c3ncccc32)c2cccnc21 | 94.5% | 120% | 94.6% | 95.5% | 101% | 88.3% | 101% | 98.4% | 91.1% | 108% | 103% | 96.5% | 121% | 98% | 117% | 96% | 99.5% | 110% | 109% | 81.8% | growth at 10 µM (MDA-MB-468): 95.5%; growth at 10 µM (T47D): 109%; growth at 10 µM (SK-OV-3): 111%; growth at 10 µM (HL-60(TB)): 183%; growth at 10 µM (MOLT-4): 127%; growth at 10 µM (RPMI-8226): 105%; growth at 10 µM (Malme-3M): 91.5%; growth at 10 µM (DU-145): 119%; growth at 10 µM (PC-3): 100%; growth at 10 µM (SF-268): 103%; growth at 10 µM (SF-295): 98.9%; growth at 10 µM (SNB-19): 99.4%; growth at 10 µM (SNB-75): 75.5%; growth at 10 µM (U-251): 95.8%; Activity [1]: 88%; Activity [2]: 109%; Activity [3]: 101%
2 | O=C1Nc2ncccc2/C1=C1/Nc2ccccc2C1=O | 84.1% | 117% | 51.5% | 53.7% | 71.2% | 46.2% | 82.3% | 30.6% | 68.8% | 96.9% | 76% | 79.7% | 47.7% | 76.3% | 82.8% | 77.9% | 93.8% | 89.5% | 102% | 70.6% | growth at 10 µM (MDA-MB-468): 42.8%; growth at 10 µM (T47D): 48.4%; growth at 10 µM (SK-OV-3): 89.5%; growth at 10 µM (HL-60(TB)): 173%; growth at 10 µM (MOLT-4): 85.3%; growth at 10 µM (RPMI-8226): 75.4%; growth at 10 µM (Malme-3M): 139%; growth at 10 µM (DU-145): 81.2%; growth at 10 µM (PC-3): 73%; growth at 10 µM (SF-268): 84.4%; growth at 10 µM (SF-295): 102%; growth at 10 µM (SNB-19): 96.4%; growth at 10 µM (SNB-75): 68.1%; growth at 10 µM (U-251): 88.2%; Activity [1]: 88%; Activity [2]: 64%; Activity [3]: 82%
3 | O=C1Nc2ncccc2/C1=C1/Nc2ccccc2/C1=N\O | 43.4% | -11.7% | 22.6% | 12.4% | 29.4% | 10.6% | 46.6% | 35.5% | 45.9% | 54% | 89.7% | 30.7% | 52.2% | 47.6% | 106% | 33.9% | 102% | 15% | 82.8% | 45.2% | growth at 10 µM (MDA-MB-468): 28.4%; growth at 10 µM (T47D): 49.1%; growth at 10 µM (SK-OV-3): 6.5%; growth at 10 µM (HL-60(TB)): 125%; growth at 10 µM (MOLT-4): 40.8%; growth at 10 µM (RPMI-8226): 69.5%; growth at 10 µM (Malme-3M): 91%; growth at 10 µM (DU-145): 82.2%; growth at 10 µM (PC-3): 67.7%; growth at 10 µM (SF-268): 86.2%; growth at 10 µM (SF-295): 94.9%; growth at 10 µM (SNB-19): 96.5%; growth at 10 µM (SNB-75): 31.2%; growth at 10 µM (U-251): 87.3%; Activity [1]: 105%; Activity [2]: 76%; Activity [3]: 65%
